Legend:
[1] = In-vitro release study of RWJ-53308 from PLGA coated stent; type: physicochemical; conditions: from PLGA coated stent in 2 mL water
Protocol: A coated stent obtained in step b was placed in a tube with 2 mL of water. A 1 mL. aliquot was taken at the 1 hr and at the 17.5 hour time point. This 1 mL. aliquot was replaced with fresh water at each sampling. The sampled aliquot was analyzed by reading UV absorbance at 261 nm. The drug concentration was calculated by comparing the absorbance of a standard solution containing 147 μg/mL aqueous solution of RWJ-53308.
It was observed that approx. 66 ug of RWJ-53308 was released at 1 hour and a cumulative amount of approx. 134 ug was released at 17.5 hours as shown in FIG. 1.

[2] = Determination of RWJ-53308 on the PLGA coated stent (24 h water maceration, UV 261 nm); type: physicochemical; conditions: macerated 24 hours in 2 mL water, UV absorbance 261 nm
Protocol: A coated stent obtained in step b above was placed in a tube with 2 mL. water. The coated stent was allowed to macerate for 24 hours. The aqueous supernatant was drained, filtered and UV absorbance was read at 261 nm. The amount of RWJ-53308 on the stent was calculated by comparing the absorbance value of a standard solution containing 147 μg/mL solution of RWJ-53308. Thus the supernatant obtained by extracting the drug from the PLGA coated stent contained 105 μg of RWJ-53308.

O=C(O)C[C@H](NC(=O)[C@@H]1CCCN(C(=O)CCC2CCNCC2)C1)c1cccnc1 [RWJ-53308, 3-Pyridinepropanoic acid, b-[[[(3R)-1-[1-oxo-3-(4-piperidinyl)propyl]-3-piperidinyl]carbonyl]amino]-, (bS)-(9CI)]
amount of RWJ-53308 released ([1]; at 1 hour): approx. 66 ug
cumulative amount of RWJ-53308 released ([1]; at 17.5 hours): approx. 134 ug
amount of RWJ-53308 in supernatant extracted from PLGA coated stent [2]: 105 µg

Source: patent US6627246B2, “Process for coating stents and other medical devices using super-critical carbon dioxide” (Ortho-McNeil Pharmaceutical, Inc., priority 2000, dated 2003)
